Read-outs that look alike come from different tables or passages of the source.
Target: SARS-CoV-2 NSP3 Mac1 (Severe acute respiratory syndrome coronavirus 2, UniProt P0DTD1)
Type: binding
Design: contains a conserved macrodomain enzyme (Mac1)
Settings: for Spearman est (compound concentration vs apparent Tm): DSF dose responsiveness, 1 µM nsp3 mac1, adj p given
Experimental: DSF and associated compound handling was performed as described ([12]), with 5 µM dye “Fluorescent Yellow” (Jacquard iDye Cat #JID1405) used in place of SYPRO Orange. Compounds were tested in triplicate, at seven concentrations in two-fold serial dilutions, at a top concentration of either 1,000 or 100 μM. To minimize experimental noise arising from plate location-based effects on Tma, all concentrations and replicates for each compound were tested within a single region of the microtiter plates, including a DMSO-only control from which ΔTmas were calculated for that compound. […] For each compound, to determine statistical significance of the dose responsive thermal shift, the Spearman’s coefficient was calculated between compound concentration and ΔTma.

[1] = maximal thermal upshift vs DMSO control

SMILES | Spearman est (compound concentration vs apparent Tm) | DSF max dTma [1] [°C] | DSF max dTma (maximal thermal upshift)
Cc1ccc(C(=O)N2CC[C@H](Oc3ccccc3)C2)cc1O [ZINC000371562024] | −0.6 |  | 
CN(C(=O)CN1CCNC(=O)C1)c1ccc(-c2nccs2)cc1 [Z3700] |  | 0 | 
CCOC(=O)C(NC(=O)c1c[nH]c2ncncc12)c1c[nH]c2ccccc12 (centres unmarked) [Z4661819167] | 0.82 |  | 
CNc1ccc(C(=O)N2CC(C(=O)O)CC23CCOCC3)cn1 (centres unmarked) [REAL300007318908] | 0.29 |  | 0.04 ˚C
c1ccc2c(-c3noc(CCCc4nc(C5CC5)no4)n3)n[nH]c2c1 [Z9652] |  | 0.72 | 
Cc1n[nH]c2ncc(CN3CC(C)Oc4c(F)cccc43)cc12 (centres unmarked) [Z8637] |  | 0.16 | 
CN(Cc1cccc(O)c1)C(=O)Cc1ccncc1 [ZINC000542791186] | 0.23 |  | 
Nc1cc(-c2noc(CCn3cccn3)n2)ncn1 [Z5086] |  | 1.48 | 
CNc1cc(N2CCCC(c3nc(C)no3)C2)ncn1 (centres unmarked) [ZINC000891943247] | 0.24 |  | 0.27 ˚C
Nc1nc(N)c2ncn(Cc3csc(Cl)n3)c2n1 [Z4718398572] | 0.89 |  | 
CN(Cc1ncc(Cl)n1C)c1ncnc(N)n1 [ZINC001337833291] | 0.82 |  | 
Cc1cc(-n2cncn2)ccc1C(=O)OCC1OCCc2ccccc21 (centres unmarked) [Z3896] |  | 0.63 | 
NC(=O)c1ccc(CCSc2cccc(F)c2)cc1 [Z8885] |  | 0.09 | 
O=c1[nH]ccn2c(CSc3nc4ccccc4s3)nnc12 [Z1015] |  | 0.67 | 
CC1CN(C(=O)CCc2nc(-c3ccncc3)no2)C1c1ccccc1 (centres unmarked) [ZINC000173980856] | 0.61 |  | 
O=C(Cc1ccc(-n2cccn2)cc1)OCC1CCCNC1=O (centres unmarked) [ZINC000835985505] | −0.14 |  | 
Cc1cc(CSc2nnc3c(=O)[nH]c4ccccc4n23)no1 [Z1628] |  | 0.68 | 
NC(=O)c1cc(N2CCCC[C@H]2C(=O)O)ncn1 [REAL250003324764] | 0.14 |  | 0.15 ˚C
O=S1(=O)CCC2(CCCN(c3ncnc4[nH]c5cc(F)ccc5c34)C2)C1 (centres unmarked) [LL1_0010] | 0.3 |  | 0.68 ˚C
O=C(Cc1ccc2c(c1)CCO2)OCc1cc2ccccc2[nH]c1=O [ZINC000733430132] | −0.12 |  | 
Cn1cnc(C(=O)NCC2CCN2C(=O)c2ncnc3[nH]ccc23)c1 (centres unmarked) [ZINC000949397098] | 0.3 |  | 0.1 ˚C
